We go through 23 compounds from US11932657B2, “Heterocyclic compound” (priority 2018, dated 2024).

For assay [1], the target named is T1, aryl hydrocarbon receptor (AhR) (Homo sapiens, UniProt P35869).
T1 construct: DRE-Luc HepG2 cells subcultured in a 225 cm^2 flask; endogenous in cells; host or cells: HepG2 (ATCC), stably transfected with the reporter hCYP1A1/pGL4.27 (DRE-Luc HepG2)
T1 sequence (P35869 11-848): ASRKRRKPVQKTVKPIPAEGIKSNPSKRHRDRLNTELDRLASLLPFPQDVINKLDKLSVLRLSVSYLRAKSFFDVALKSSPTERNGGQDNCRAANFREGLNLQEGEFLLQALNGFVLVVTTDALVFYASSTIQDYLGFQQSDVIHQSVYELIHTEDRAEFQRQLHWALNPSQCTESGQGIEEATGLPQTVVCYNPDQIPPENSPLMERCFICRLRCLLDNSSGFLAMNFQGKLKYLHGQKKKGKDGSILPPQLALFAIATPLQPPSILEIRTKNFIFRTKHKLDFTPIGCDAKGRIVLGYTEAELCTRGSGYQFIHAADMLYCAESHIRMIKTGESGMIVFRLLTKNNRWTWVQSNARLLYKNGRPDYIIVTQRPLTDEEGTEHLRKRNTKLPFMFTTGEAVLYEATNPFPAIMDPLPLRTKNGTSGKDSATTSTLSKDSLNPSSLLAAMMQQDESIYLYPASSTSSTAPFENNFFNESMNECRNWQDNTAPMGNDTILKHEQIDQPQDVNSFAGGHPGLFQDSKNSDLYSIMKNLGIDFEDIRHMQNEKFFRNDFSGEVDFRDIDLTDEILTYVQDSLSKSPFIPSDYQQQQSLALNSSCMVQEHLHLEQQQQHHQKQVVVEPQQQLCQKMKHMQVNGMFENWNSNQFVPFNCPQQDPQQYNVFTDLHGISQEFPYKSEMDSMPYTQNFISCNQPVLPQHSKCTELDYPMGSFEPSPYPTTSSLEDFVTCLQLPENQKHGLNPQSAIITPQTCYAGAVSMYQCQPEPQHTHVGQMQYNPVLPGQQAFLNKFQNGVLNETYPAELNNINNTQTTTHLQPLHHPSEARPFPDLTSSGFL
The assay is described as follows: AhR reporter gene assay (aryl hydrocarbon receptor antagonist activity, DRE-Luc HepG2 cells, TCDD-stimulated luciferase). The assay is classed as cell-based. The procedure:
Test Example 1 (Aryl Hydrocarbon Receptor Antagonist Activity)
An expression vector, hCYP1A1/pGL4.27 was introduced into HepG2 cells (derived from American Type Culture Collection (ATCC)) that were seeded in 6-well plates (#3810-006 (Iwaki)) at 1.2×10^6 cells/well, using Lipofectamine 3000 (#100022050 (Invitrogen)). Referring to Garrion P M et al., Fundam Appl Toxicol, 30, 194 (1996), the vector hCYP1A1/pGL4.27 incorporated the human CYP1A1 promotor region including dioxin responsive element (DRE) region of the AhR binding region into the XhoI-BglII restriction enzyme site of pGL4.27 (#E8451 (Promega)). After 24 hours, medium-1 was replaced, and after 48 hours, the medium-1 containing hygromycin B (200 to 1000 μg/mL) was subjected to drug treatment. Culturing using the medium containing hygromycin B was continued for about 1 month to clone 24 clones showing drug resistance. A cell line showing high reporter activity was selected (DRE-Luc HepG2) from drug resistant lines using as an indicator luciferase activity (Dual-Glo Luciferase substrate, #E297A (Promega)) relative to an AhR agonist, 2,3,7,8-tetrachlorodibenzo-p-dioxin (TCDD) (#ED-901-B (CIL.)).
DRE-Luc HepG2 cells subcultured in a 225 cm^2 flask (#11-0005 (Iwaki)) were washed with PBS (#1419-144 (Gibco), Lot: 1896207), and thereto was added 8 mL of Trypsin-EDTA (0.05%) (#25300-054 (Gibco)). Thereafter, an excessive liquid was removed from the mixture, and the cells were stood at room temperature for 5 minutes. Thereto was added 10 mL of medium-2, the cells were recovered through a cell strainer (#352350 (Falcon), 70 μm), and the number of cells were then counted using a hemocytometer. A cell suspension was prepared at 3×10^5 cells/mL, 100 μL/well of the cell suspension was seeded into a 96-well white plate (#136101, F96 Microwell (Nunc)), and the cells were then cultured in a CO2 incubator (5% CO2, 37° C.). After 24 hours, the medium was aspirated, and thereto was added 100 μL of an assay medium solution including the compound of the present invention, and the cells were cultured in the CO2 incubator (5% CO2, 37° C.). After 24 hours, 11 μL of an assay medium solution including 5×10^−10 M TCDD (#ED-901-B (CIL.)) was added thereto and the cells were cultured in the CO2 incubator (5% CO2, 37° C.). After 24 hours, 50 μL of a reaction substrate (#E253B, Steady-Glo Luciferase substrate (Promega)) for Firefly Luciferase enzyme reaction was added to each well, and after 5 minute-shaking, the light emission intensity was measured with Wallac ARVO 1420sx (PerkinElmer).

Assay [2] concerns immortalized megakaryocyte line (SeV2-MKCL). The assay is described as follows: Platelet production: static culturing of immortalized megakaryocyte line. The assay is classed as cell-based. As to conditions: compound final concentration 0.1 μM, static culturing 6 to 7 days, control (DMSO) set to 1; platelets = CD41, CD42b and CD42a-positive cells. As for the experimental part: Test Example 2 (Platelet Production: Static Culturing)
The immortalized megakaryocyte line (SeV2-MKCL) obtained according to the method described in WO 2016/204256 was washed twice with D-PBS(−) and then cultured in medium not containing doxycycline to terminate forced expression. Culturing was implemented by seeding the cells at 1 mL/well in a 24-well plate (#662160 (Greiner Rio-One)) at a seeding density of 1×10^5 cells/mL followed by static culturing in the medium indicated below.
The medium was obtained by adding the following components to IMDM serving as the basal medium (concentrations indicate final concentrations).
Culturing was implemented under conditions of 37° C. and 5% CO2. At the same time, the compound of the present invention (final concentration 0.1 μM) or DMSO (control) was added and cultured for 6 to 7 days. Thereafter, the number of platelets (CD41, CD42b, and CD42a-positive cells) was measured. The measurement method was as shown below. The same procedure was performed with the control.
A portion of the culture supernatant was harvested 6 to 7 days after culturing to terminate gene expression, and suspended with the following antibodies to stain them. eFluor 450-labeled anti-CD42a antibody (#48-0428-42 (eBioscience)) PE-labeled anti-CD42b antibody (#303906 (BioLegend)) APC-labeled anti-CD41 antibody (#303710 (BioLegend)) The number of platelets was counted using FACSVerse manufactured by BD 30 minutes after the stain reaction. In the measurement of the number of platelets, the number of cells was corrected using Flow-count beads (#7547053 (Beckman Coulter)).
The number of platelets produced from one megakaryocyte cell was calculated based on the number of platelets in the sample obtained by the FACS measurement, and the result was defined as platelet production efficiency (PLT/MK) and used for evaluation of drug efficacy of the compound. In addition, the specific activity at the time when the platelet production efficiency of the control was set to 1 was indicated as fold increase.

Compound `CC1(C)CSc2nc3c(NCCc4ccc(O)c(-c5cncc(C#N)c5)c4)nc(-c4cncc(F)c4)nc3n21` [Example 76] gave an IC50 in assay [1] of 5.7 nM. Moreover, the “Static (vs veh): fold increase of platelet production efficiency (PLT/MK)” value (“Static (vs veh): fold increase” below) in assay [2] is given as 2.4.
The like results for `CC1(C)COc2nc3c(NCCc4ccc(O)c(-c5cc(C#N)ccc5F)c4)nc(-c4cncc(F)c4)nc3n21` [Example 54] were, in that order, 4.1 nM and 5.9.
The like results for `CC1(C)COc2nc3c(NCCc4ccc(O)c(-c5cccc(Cl)c5)c4)nc(-c4cncc(F)c4)nc3n21` [Example 6] were, in that order, 10 nM and 3.7.
In the case of `C[C@@H]1CSc2nc3c(NCCc4ccc(O)c(-c5cncc(F)c5)c4)nc(-c4cncc(F)c4)nc3n21` [Example 71], it took 4.7 nM to reach half-maximal inhibition in assay [1] (IC50). The “Static (vs veh): fold increase” value in assay [2] is given as 7.2.
In the case of `Cc1cncc(-c2nc(NCCc3ccc(O)c(-c4cc(C#N)ccc4F)c3)c3nc4n(c3n2)C(C)(C)CO4)c1` [Example 66], in assay [1], half-maximal inhibition (IC50) was put at 8.1 nM. Also, the “Static (vs veh): fold increase” value in assay [2] was determined as 4.8.
Compound `CC1(C)COc2nc3c(NCCc4ccc(O)c(-c5c(F)cccc5F)c4)nc(-c4cncc(F)c4)nc3n21` [Example 44] showed an IC50 in assay [1] of 3.5 nM. Besides, the “Static (vs veh): fold increase” value in assay [2] is 3.4.
Regarding `C[C@H]1CSc2nc3c(NCCc4ccc(O)c(-c5cccc(F)c5)c4)nc(-c4cncc(F)c4)nc3n21` [Example 31], inhibition in assay [1] was half-maximal at 0.46 nM (IC50). In assay [2], the “Static (vs veh): fold increase” value came out at 5.9.
The like results for `CC1(C)COc2nc3c(NCCc4c[nH]c5ccccc45)nc(-c4cccc(F)c4)nc3n21` [Example 85] were, in that order, 27 nM and 6.1.
Compound `CC1(C)COc2nc3c(NCCc4ccc(O)c(-c5cccc(C#N)c5)c4)nc(-c4cncc(C#N)c4)nc3n21` [Example 59] registered an IC50 in assay [1] of 2.5 nM. Also, the “Static (vs veh): fold increase” value in assay [2] amounted to 5.7.
In turn, `CC1(C)COc2nc3c(NCCc4ccc(O)c(-c5ccc(C#N)cc5)c4)nc(-c4cncc(F)c4)nc3n21` [Example 18] showed an IC50 in assay [1] of 6.9 nM. The “Static (vs veh): fold increase” value in assay [2] was 7.3.
The compound `CC1(C)COc2nc3c(NCCc4c[nH]c5ccccc45)nc(-c4cccnc4)nc3n21` [Example 94] returned an IC50 in assay [1] of 39 nM. Besides, the “Static (vs veh): fold increase” value in assay [2] was 2.6.
Compound `Cc1cncc(-c2nc(NCCc3ccc(O)c(-c4ccccc4)c3)c3nc4n(c3n2)C(C)(C)CO4)c1` [Example 22] yielded an IC50 in assay [1] of 9.8 nM. Also, the “Static (vs veh): fold increase” value in assay [2] was determined as 7.3.
In turn, `COc1ccccc1-c1cc(CCNc2nc(-c3cncc(F)c3)nc3c2nc2n3C(C)(C)CO2)ccc1O` [Example 41] showed an IC50 in assay [1] of 10 nM. For the same compound, in assay [2], the “Static (vs veh): fold increase” value is 7.0.
The like results for `Cc1cncc(-c2nc(NCCc3ccc(O)c(-c4cccc(C#N)c4F)c3)c3nc4n(c3n2)C(C)(C)CO4)c1` [Example 68] were, in that order, 2.8 nM and 3.2.
Compound `CC1(C)COc2nc3c(NCCc4ccc(O)c(-c5cccc(F)c5)c4)nc(-c4cncc(C#N)c4)nc3n21` [Example 36] showed a half-inhibitory concentration (IC50) in assay [1] of 0.7 nM. Besides, the “Static (vs veh): fold increase” value in assay [2] is on record as 2.7.
The like results for `CC1(C)CSc2nc3c(NCCc4ccc(O)c(-c5ccccc5)c4)nc(-c4cncc(F)c4)nc3n21` [Example 47] were, in that order, 0.38 nM and 3.7.
As for `CC1(C)COc2nc3c(NCCc4ccc(O)c(-c5c(F)cccc5F)c4)nc(-c4cncc(C#N)c4)nc3n21` [Example 45], inhibition in assay [1] was half-maximal at 11 nM (IC50). For the same compound, the “Static (vs veh): fold increase” value in assay [2] came to 2.4.
`CC1(C)CSc2nc3c(NCCc4ccc(O)c(-c5cccc(F)c5)c4)nc(-c4ccc5nccn5c4)nc3n21` [Example 53] returned an IC50 in assay [1] of 1.2 nM. The “Static (vs veh): fold increase” value in assay [2] is 5.3.
The compound `CC1(C)COc2nc3c(NCCc4ccc(O)c(-c5ccc(F)cc5F)c4)nc(-c4cncc(F)c4)nc3n21` [Example 42] had an IC50 in assay [1] of 6.1 nM. Moreover, in assay [2], the “Static (vs veh): fold increase” value is recorded as 4.8.
In assay [1], `CC1(C)C[S+]([O-])c2nc3c(NCCc4ccc(O)c(-c5cccc(F)c5)c4)nc(-c4cncc(F)c4)nc3n21` (stereo not shown) [Example 21] had an IC50 of 0.033 nM. In addition, the “Static (vs veh): fold increase” value in assay [2] was 4.7.
`CC1(C)COc2nc3c(NCCc4ccc(O)c(-c5cc(F)cc(C#N)c5)c4)nc(-c4cncc(C#N)c4)nc3n21` [Example 69] showed an IC50 in assay [1] of 13 nM. In addition, the “Static (vs veh): fold increase” value in assay [2] was 4.7.
Compound `CC1(C)COc2nc3c(NCCc4c[nH]c5ccccc45)nc(-c4cncc(C#N)c4)nc3n21` [Example 92] yielded an IC50 in assay [1] of 33 nM. Moreover, in assay [2], the “Static (vs veh): fold increase” value stood at 2.6.
`CC1(C)COc2nc3c(NCCc4ccc(O)c(-c5cccc(C#N)c5)c4)nc(-c4cncc(F)c4)nc3n21` [Example 17, 3-[5-[2-[[2-(5-fluoropyridin-3-yl)-8,8-dimethyl-7H-purino[8,9-b][1,3]oxazol-4-yl]amino]ethyl]-2-hydroxyphenyl]benzonitrile] registered an IC50 in assay [1] of 2.3 nM. In assay [2], the “Static (vs veh): fold increase” value stood at 7.8.
